Tested on: Anaesthetized Guinea-pig
Assay: Filling cystometry in the anaesthetized guinea-pig (effects on lower urinary tract function)
Type: in vivo
Conditions: for % Change in Micturition Pressure / % Change in Threshold Volume: infused continuously for 60 min, vs baseline
Method: Animals: Female Hartley guinea pigs (body weight 300-350 grams).
Surgical procedure: The animals are anaesthetized with urethane (1.5 g/kg intraperitoneally) given as a divided dose of 80% initially and 20% 15 min later. Body temperature is maintained at 37±2° C. throughout the experiment. The bladder is exposed through a lower abdominal incision and a polyethylene catheter with a small cuff is inserted in the bladder dome and secured with a purse-string suture. The ureters are then ligatured. The bladder is replaced under the abdominal wall and the catheter is connected via a T-tube to a pressure transducer in order to measure intravesical pressure. The trachea is cannulated. The jugular vein is cannulated to allow administration of test compounds and the femoral artery is cannulated in order to collect plasma sample.
Cystometry: A series of filling cystometry cycles are performed throughout the experimental measurement period to establish baseline parameters and determine drug effect. Before each cystometry cycle, the bladder is emptied manually. Saline at room temperature is then infused continuously into the bladder via the catheter at a flow rate of 600 μL/min until a micturition occurs. The following micturition parameters are measured during each cystometry cycle: Micturition Pressure (MP, the pressure in the bladder during voiding) and Threshold Volume (ThV, volume at which micturition occurs, mL).
Evaluation of drug effect: After the determination of baseline parameters (mean of 3 micturition cycles), test substance or vehicle is administered continuously for 60 minutes. At the end of the drug infusion period, the effect of drug on cystometry parameters is determined by taking an average of the measurements made in two micturition cycles. For combination studies, the respective doses of the test compounds are infused together over a 60 min period following the measurement of baseline parameters.

SMILES	effect on micturition pressure (in words) (Compound A 0.11 mg/kg, 0.32 mg/kg)	% Change in Micturition Pressure (Compound A 0.11 mg/kg)	% Change in Threshold Volume (Compound A 0.11 mg/kg)	% Change in Micturition Pressure (Compound A 0.32 mg/kg)	% Change in Threshold Volume (Compound A 0.32 mg/kg)	% Change in Micturition Pressure (Oxybutynin 3.18 mg/kg)	% Change in Threshold Volume (Oxybutynin 3.18 mg/kg)	effect on micturition pressure (in words) (oxybutynin 3.18 mg/kg)
CCCOc1ccc(S(=O)(=O)N2CCN(CC)CC2)cc1-c1nc2c(CC)nn(Cc3ccccn3)c2c(=O)[nH]1 [Compound A, 3-ethyl-5-[5-(4-ethylpiperazin-1-ylsulphonyl)-2-n-propoxyphenyl]-1-(pyridin-2-yl)methyl-1,6-dihydro-7H-pyrazolo[4,3-d]pyrimidin-7-one]	small reduction	−6.7%	−2.7%	−6%	+11.4%	–	–	–
CCN(CC)CC#CCOC(=O)C(O)(c1ccccc1)C1CCCCC1 (centres unmarked) [Oxybutynin, oxybutynin, reference compound]	–	–	–	–	–	+3.2%	+18.9%	small increase

Reference: US20080318982A1, “Pharmaceutical Combination for the Treatment of Luts” (Pfizer, Inc., priority 2005, published 2008)
